According to paper PMC11649115, “In vitro safety evaluation of dopamine D3R antagonist, R-VK4-116, as a potential medication for the treatment of opioid use disorder” (PLOS ONE, 2024):
Several values for one entry are separate records, joined by “and”; a condition that tells them apart may be missing. Equal values may be shown once. Read-outs that look alike come from different tables or passages of the source.

Legend:
[1] = tested on: CYP1A2, CYP2B6, CYP2C8, CYP2C9, CYP2C19; test: CYP phenotyping, other recombinant CYP isoforms; format: in vitro ADME; conditions: 1 μM, up to 120 min
Method: CYP phenotyping involved the identification of CYP isoforms, which involved in the metabolism of R-VK4-116 using recombinant CYP1A2, CYP2B6, CYP2C8, CYP2C9, CYP2C19, CYP2D6, and CYP3A4 (XenoTech, LLC, Kansas City, KS), followed by determination of the Km and Vmax for the metabolites formed by the major CYP isoforms. […] In addition, R-VK4-116 was also incubated with all components in the absence of NADPH. […] Following brief vortexing and centrifugation, 50 μl of supernatant was mixed with 450 μl of 25:75:0.2 acetonitrile/water/formic acid for analysis by LC-MS/MS to determine the remaining R-VK4-116 at each time point based on peak area ratio (PAR) of R-VK4-116 to IS. As a positive control, the known substrate of each individual CYP isoform (phenacetin for CYP1A2, bupropion for CYP2B6, paclitaxel for CYP2C8, diclofenac for CYP2C9, diazepam for CYP2C19, bufuralol for CYP2D6, and testosterone for CYP3A4) was also incubated.

[2] = Metabolic stability in hepatocyte; conditions: human, hepatocytes in suspension
Method: (§1) CYP3A4 substrate Midazolam (10 μM) was prepared and incubated in the same manner. […] In addition, in vitro half-life (t1/2, min) and intrinsic clearance (CLint, μl/min/10^6 cells) were calculated [10, 11].

human hepatocytes = test: Metabolic stability in hepatocyte; conditions: for % remaining Vs T = 0 min: human hepatocytes
Method: as §1

SRPK2 = target: T1, SRPK2 (Homo sapiens, UniProt P78362); test: KINOMEscan binding (% Ctrl, Kd)
T1 construct: made in house; host or cells: E. coli BL21-derived host (T7 phage) or HEK-293
Method: (§2) Briefly, E. coli host derived from the BL21 strain were grown to log-phase and infected with kinase-tagged T7 phage and incubated with shaking at 32°C until lysis. The lysates were centrifuged and filtered to remove cell debris. The remaining kinases were produced in HEK-293 cells and subsequently tagged with DNA for qPCR detection. Streptavidin-coated magnetic beads were treated with biotinylated small molecule ligands to generate affinity resins for kinase assays. The liganded beads were blocked with excess biotin and washed to remove unbound ligand and to reduce non-specific phage binding. […] Selectivity Score (S-score) was a quantitative measure of compound selectivity. […] The binding constants (Kds) were also determined with a standard dose-response curve using the Hill equation and Levenberg-Marquardt algorithm [24, 25].

CYP1A2 = target: T2, CYP1A2 (Homo sapiens, UniProt P05177); test: CYP inhibition in human liver microsomes; conditions: human liver microsomes
T2 sequence (P05177 1-516): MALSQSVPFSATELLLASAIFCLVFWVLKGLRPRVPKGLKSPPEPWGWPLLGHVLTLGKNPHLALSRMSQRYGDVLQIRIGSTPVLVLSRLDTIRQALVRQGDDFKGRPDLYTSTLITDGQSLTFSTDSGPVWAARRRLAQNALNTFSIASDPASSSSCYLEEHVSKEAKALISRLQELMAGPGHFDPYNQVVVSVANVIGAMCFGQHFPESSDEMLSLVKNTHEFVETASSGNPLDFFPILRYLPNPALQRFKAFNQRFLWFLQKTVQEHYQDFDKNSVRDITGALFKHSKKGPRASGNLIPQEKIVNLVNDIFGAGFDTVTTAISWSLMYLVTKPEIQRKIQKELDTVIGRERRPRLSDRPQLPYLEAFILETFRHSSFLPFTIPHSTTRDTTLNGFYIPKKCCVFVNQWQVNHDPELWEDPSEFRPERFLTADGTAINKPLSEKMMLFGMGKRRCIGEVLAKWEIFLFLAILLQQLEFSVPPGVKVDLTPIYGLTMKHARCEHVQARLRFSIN

TNK1 = target: T3, TNK1 (Homo sapiens, UniProt Q13470); test: KINOMEscan binding (% Ctrl, Kd)
T3 construct: made in house; host or cells: E. coli BL21-derived host (T7 phage) or HEK-293
T3 sequence (Q13470 1-666): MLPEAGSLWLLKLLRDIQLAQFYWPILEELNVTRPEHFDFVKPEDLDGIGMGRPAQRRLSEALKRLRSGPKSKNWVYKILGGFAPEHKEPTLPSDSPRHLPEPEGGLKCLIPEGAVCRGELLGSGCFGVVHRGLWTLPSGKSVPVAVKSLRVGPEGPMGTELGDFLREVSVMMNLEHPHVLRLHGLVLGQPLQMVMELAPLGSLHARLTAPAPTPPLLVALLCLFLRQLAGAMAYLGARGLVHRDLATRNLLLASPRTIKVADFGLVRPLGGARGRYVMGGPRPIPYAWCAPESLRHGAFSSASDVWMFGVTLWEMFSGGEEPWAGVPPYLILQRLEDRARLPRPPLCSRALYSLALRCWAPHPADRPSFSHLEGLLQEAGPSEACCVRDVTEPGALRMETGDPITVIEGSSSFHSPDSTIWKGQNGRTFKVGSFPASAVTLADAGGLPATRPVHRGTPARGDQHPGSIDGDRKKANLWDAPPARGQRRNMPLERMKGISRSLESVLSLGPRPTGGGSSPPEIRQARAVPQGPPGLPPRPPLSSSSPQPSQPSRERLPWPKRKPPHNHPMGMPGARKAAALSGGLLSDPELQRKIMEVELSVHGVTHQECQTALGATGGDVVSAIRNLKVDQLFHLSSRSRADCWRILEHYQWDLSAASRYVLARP
Method: as §2

cardiovascular effects = conditions: rats, up to 25 mg/kg ref 9; cited from earlier work
[3] = Phospholipidosis and steatosis, high content screening; format: cell-based; set-up: key to Cell count, Trend (↑↓) / Nuclear size, Trend (↑↓) / DNA structure, Trend (↑↓) / Phospholipidosis, Trend (↑↓) / Steatosis, Trend (↑↓): ↑: increasing trend of response; ↓: decreasing trend of response; conditions: human, HepG2 cells
HepG2 cells = test: as above; format: cell-based; set-up: key to Cell count, Trend (↑↓) / Nuclear size, Trend (↑↓) / DNA structure, Trend (↑↓) / Phospholipidosis, Trend (↑↓) / Steatosis, Trend (↑↓): ↑: increasing trend of response; ↓: decreasing trend of response
[4] = Sprague Dawley (rat), Beagle (dog), rat, dog
[5] = 11-point curve 0.001 to 10 μM, read-out: binding constant (Kd)

T1 sequence (P78362 whole entry): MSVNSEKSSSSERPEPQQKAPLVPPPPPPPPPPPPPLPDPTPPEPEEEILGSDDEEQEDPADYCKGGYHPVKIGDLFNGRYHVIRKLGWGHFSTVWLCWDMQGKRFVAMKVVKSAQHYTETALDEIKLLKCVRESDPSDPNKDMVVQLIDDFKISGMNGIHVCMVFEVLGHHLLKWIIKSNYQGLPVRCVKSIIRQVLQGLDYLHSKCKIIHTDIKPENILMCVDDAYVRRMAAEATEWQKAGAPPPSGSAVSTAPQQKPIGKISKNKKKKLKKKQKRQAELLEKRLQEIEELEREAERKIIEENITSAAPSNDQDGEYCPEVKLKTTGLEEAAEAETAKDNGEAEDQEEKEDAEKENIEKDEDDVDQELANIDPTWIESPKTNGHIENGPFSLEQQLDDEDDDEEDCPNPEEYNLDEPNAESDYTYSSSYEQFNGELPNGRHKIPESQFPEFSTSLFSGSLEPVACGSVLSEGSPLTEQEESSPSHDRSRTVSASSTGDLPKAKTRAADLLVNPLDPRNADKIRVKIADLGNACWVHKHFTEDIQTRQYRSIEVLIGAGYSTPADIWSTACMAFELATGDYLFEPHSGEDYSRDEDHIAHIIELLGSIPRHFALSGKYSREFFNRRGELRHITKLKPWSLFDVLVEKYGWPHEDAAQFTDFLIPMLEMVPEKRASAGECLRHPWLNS

With `CCc1cc(Cl)c(OC)c(N2CCN(CC(O)CCNC(=O)c3cc4ccccc4[nH]3)CC2)c1` (centres unmarked) [R-VK4-116, N-(4-(4-(3-chloro-5-ethyl-2-methoxyphenyl)piperazin-1-yl)-3-hydroxybutyl)-1H-indole-2-carboxamide] the “metabolism by other CYP isoforms” value [1] was “Minimal to no metabolism”, the half-life at 0.5 μM [2, 4] was 1.52 to 1.95 h and the half-life at 10 μM [2, 4] was 2.82 to 5.78 h. For the same compound, the hepatocyte CLint at 0.5 μM [2, 4] was 12 to 16 µL/min/1e6 cells, the hepatocyte CLint at 10 μM [2, 4] was 4 to 8 µL/min/1e6 cells and the half-life at 0.5 μM [2] was 1.95 h. The half-life at 10 μM [2] was 5.63 h, the hepatocyte CLint at 0.5 μM [2] was 11.8 µL/min/1e6 cells and the hepatocyte CLint at 10 μM [2] was 4.1 µL/min/1e6 cells. The “% remaining Vs T = 0 min” value (human hepatocytes; 0.5 μM, 0 min) was 100.0%, the “% remaining Vs T = 0 min” value (human hepatocytes; 0.5 μM, 30 min) was 89.1% and the “% remaining Vs T = 0 min” value (human hepatocytes; 0.5 μM, 60 min) was 78.4%. For the same compound, the “% remaining Vs T = 0 min” value (human hepatocytes; 0.5 μM, 90 min) was 65.4%, the “% remaining Vs T = 0 min” value (human hepatocytes; 0.5 μM, 120 min) was 48.1% and the “% remaining Vs T = 0 min” value (human hepatocytes; 10 μM, 0 min) was 100.0%. For the same compound, the “% remaining Vs T = 0 min” value (human hepatocytes; 10 μM, 30 min) was 93.2%, the “% remaining Vs T = 0 min” value (human hepatocytes; 10 μM, 60 min) was 85.5% and the “% remaining Vs T = 0 min” value (human hepatocytes; 10 μM, 90 min) was 78.9%. The “% remaining Vs T = 0 min” value (human hepatocytes; 10 μM, 120 min) was 79.7%, the metabolic stability (human hepatocytes; human, rat, or dog hepatocytes, 0.5 and 10 μM) was “metabolically stable” and the Kd (SRPK2; [5]) was over 10 µM. For the same compound, the remaining binding at 1 µM (SRPK2; read-out: %Control) was under 35%, the remaining binding at 1 µM (SRPK2; read-out: Gene (S-score with % control): SRPK2) was 21% and the CYP1A2 inhibition (CYP1A2; up to 100 μM) was “did not inhibit CYP significantly”. The activity at 20 min, 0.1 µM (CYP1A2; human, probe phenacetin) was 93.7 ± 5.5%, the activity at 20 min, 0.3 µM (CYP1A2; human, probe phenacetin) was 87.7 ± 2.4% and the activity at 20 min, 1 µM (CYP1A2; human, probe phenacetin) was 89.9 ± 0.9%. The activity at 20 min, 3 µM (CYP1A2; human, probe phenacetin) was 95.7 ± 5.2%, the activity at 20 min, 10 µM (CYP1A2; human, probe phenacetin) was 96.3 ± 4.7% and the activity at 20 min, 30 µM (CYP1A2; human, probe phenacetin) was 88.7 ± 1.9%. The activity at 20 min, 60 µM (CYP1A2; human, probe phenacetin) was 88.2 ± 2.3%, the activity at 20 min, 100 µM (CYP1A2; human, probe phenacetin) was 94 ± 5.2% and the Kd (TNK1; [5]) was over 10 µM. The remaining binding at 1 µM (TNK1; read-out: %Control) was under 35%, the remaining binding at 1 µM (TNK1; read-out: Gene (S-score with % control): TNK1) was 17% and the “potentiation of the cardiovascular effects of cocaine or oxycodone” value (cardiovascular effects) was “did not potentiate”. The AC50 ([3]; # AC50 greater than the maximum surviving concentration, (NS) = not statistically significant, read-out: Steatosis, AC50) was over 100 µM, the AC50 ([3]; read-out: Cell count, AC50) was over 100 µM and the AC50 ([3]; read-out: DNA structure, AC50) was over 100 µM. For the same compound, the AC50 ([3]; read-out: Nuclear size, AC50) was over 100 µM, the AC50 ([3]; read-out: Phospholipidosis, AC50) was 10.7 µM and the “Phospholipidosis, Trend (↑↓)” value (HepG2 cells) was “↑”. The “Steatosis, Trend (↑↓)” value (HepG2 cells) was “↑” and the “Steatosis, MEC” value (HepG2 cells; (NS) = not statistically significant) was 14.2 μM and 14.2 (NS) μM.
